Assay results: US7524487B2, “Compositions and methods for modulating interleukin-10” (University of Maryland, priority 2005, dated 2009)

Key:
[1] = tested on: IL-10 promoter; experiment: ChIP of Sp1 and STAT3 binding to the IL-10 promoter in situ in stimulated BMMφ; assay type: cell-based, mice
Protocol: BMMφ were stimulated with medium (open bar), E-IgG (dotted bar), LPS (solid bar), or LPS+E-IgG (striped bar) for 40 min. Some cells were pretreated with PD98059 (10 μM). Immunoprecipitations were carried out using either Sp1 or STAT3 specific Abs. A. Conventional RT-PCR was carried out using primers which amplify the putative Sp1 or STAT3 binding sites of the IL-10 promoter respectively. B. Real time PCR analysis of samples obtained in A. Samples were normalized to input DNA controls.
FIG. 22 is a graph showing Inhibition of histone modifications by blocking ERK. BMMφ were pre-treated with PD98059 (15 μM) (solid bars) or drug vehicle (open bars) for 1 hour and then stimulated with IC plus LPS (10 ng/mL). Cross-linked chromatin fragments were immunoprecipitated with antibody to phosphorylated histone H3 at Ser 10 or antibody to Sp1. The DNA was purified and analyzed for the presence of IL-10 promoter sequences corresponding to nucleosome −2 by QRT-PCR. The data were plotted graphically as the percentage change relative to drug vehicle (IC/LPS) at 30 min post-stimulation for histone H3 phosphorylation, and at 45 min post-stimulation for Sp1 recruitment. One representative from two independent experiments is presented.
Chromatin immunoprecipitation (ChIP). ChIPs were carried out using the ChIP Assay kit following the manufacturer's protocol (Upstate USA, Inc., Lake Placid, N.Y.). […]

[2] = tested on: bone marrow derived macrophages (BMMφ); experiment: Cytokine ELISA on supernatants of stimulated bone marrow derived macrophages (LPS ± E-IgG)

Sp1 recruitment to IL-10 promoter nucleosome −2 (ChIP, QRT-PCR) ([1]; BMMφ pre-treated with PD98059 15 μM for 1 hour, IC plus LPS 10 ng/mL, 45 min post-stimulation, relative to drug vehicle): dramatically reduced
Sp1 and STAT3 transcription factor binding to the IL-10 promoter in situ (ChIP) ([1]; BMMφ pretreated with PD98059 10 μM, LPS + E-IgG for 40 min): reversed
SMILES: COc1cccc(-c2cc(=O)c3ccccc3o2)c1N [PD98059]
IL-10 secretion (ELISA) ([2]; BMMφ pretreated 30 min with PD98059 10 μM, SB203580 1 μM or JNK inhibitory peptide 1 μM, then LPS 10 ng/ml ± E-IgG, supernatants after 20 h): substantial inhibition
IL-12 (p40) production (ELISA) ([2]; BMMφ pretreated 30 min with inhibitor, then LPS 10 ng/ml ± E-IgG, 20 h): actually increased
superinduction (augmentation) of IL-10 production caused by immune complexes ([2]; BMMφ, LPS 10 ng/ml + E-IgG versus LPS alone, 20 h, inhibitor pretreatment or 100 nM siRNA): appeared to prevent
